ChEMBL document CHEMBL3826926, “Kinetic and structural insights into the binding of histone deacetylase 1 and 2 (HDAC1, 2) inhibitors” (Bioorg Med Chem, 2016)

Legend:
Histone deacetylase 1 [1] = molecular target: T1, Histone deacetylase 1 (Homo sapiens, UniProt Q13547); conditions: Sf9
Description: Inhibition of C-terminal His-tagged and C-terminal FLAG-tagged full length human recombinant HDAC1 expressed in baculovirus coexpressed in fall armyworm Sf9 cells using carboxyfluorescein (FAM)-labeled acetylated/ trifluoroacetylated peptide as substrate assessed as residence time by fluorescence assay

Histone deacetylase 3 [2] = molecular target: T2, Histone deacetylase 3 (Homo sapiens, UniProt O15379)
Description: Inhibition of full length human recombinant HDAC3 expressed in baculovirus using carboxyfluorescein (FAM)-labeled acetylated/ trifluoroacetylated peptide as substrate assessed as residence time by fluorescence assay

Histone deacetylase 2 [3] = molecular target: T3, Histone deacetylase 2 (Homo sapiens, UniProt Q92769); conditions: Sf9
T3 sequence (Q92769 whole entry): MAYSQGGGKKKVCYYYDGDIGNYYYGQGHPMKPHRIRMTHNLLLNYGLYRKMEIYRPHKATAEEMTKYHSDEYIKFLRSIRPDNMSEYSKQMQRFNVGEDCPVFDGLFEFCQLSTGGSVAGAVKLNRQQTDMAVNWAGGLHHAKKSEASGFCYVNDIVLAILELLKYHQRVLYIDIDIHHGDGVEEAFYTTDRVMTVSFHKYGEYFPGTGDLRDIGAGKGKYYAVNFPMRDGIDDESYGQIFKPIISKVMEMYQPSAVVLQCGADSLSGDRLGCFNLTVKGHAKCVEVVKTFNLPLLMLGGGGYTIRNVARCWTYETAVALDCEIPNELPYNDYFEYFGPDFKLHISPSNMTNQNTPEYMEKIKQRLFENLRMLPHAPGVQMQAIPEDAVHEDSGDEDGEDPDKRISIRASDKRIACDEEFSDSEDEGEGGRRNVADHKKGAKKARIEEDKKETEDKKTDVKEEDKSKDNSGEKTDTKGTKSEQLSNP
Description: Inhibition of full length human recombinant HDAC2 expressed in baculovirus coexpressed in fall armyworm Sf9 cells using carboxyfluorescein (FAM)-labeled acetylated/ trifluoroacetylated peptide as substrate assessed as residence time by fluorescence assay

[4] = Cmax in Sprague-Dawley rat brain at 1 mg/kg, po; assay type: ADME, organism-based; parameters: dose 1 mg/kg, route oral
Histone deacetylase 9 = Histone deacetylase 9 (Homo sapiens, UniProt Q9UKV0); experiment: Inhibition of C-terminal His-tagged human recombinant HDAC9 (604 to 1066 residues) expressed in baculovirus coexpressed in fall armyworm Sf9 cells using carboxyfluorescein (FAM)-labeled acetylated/ trifluoroacetylated peptide as substrate after 60 mins by fluorescence assay
Chain of Histone deacetylase 9 (Q9UKV0 whole entry, the tested form may be a part): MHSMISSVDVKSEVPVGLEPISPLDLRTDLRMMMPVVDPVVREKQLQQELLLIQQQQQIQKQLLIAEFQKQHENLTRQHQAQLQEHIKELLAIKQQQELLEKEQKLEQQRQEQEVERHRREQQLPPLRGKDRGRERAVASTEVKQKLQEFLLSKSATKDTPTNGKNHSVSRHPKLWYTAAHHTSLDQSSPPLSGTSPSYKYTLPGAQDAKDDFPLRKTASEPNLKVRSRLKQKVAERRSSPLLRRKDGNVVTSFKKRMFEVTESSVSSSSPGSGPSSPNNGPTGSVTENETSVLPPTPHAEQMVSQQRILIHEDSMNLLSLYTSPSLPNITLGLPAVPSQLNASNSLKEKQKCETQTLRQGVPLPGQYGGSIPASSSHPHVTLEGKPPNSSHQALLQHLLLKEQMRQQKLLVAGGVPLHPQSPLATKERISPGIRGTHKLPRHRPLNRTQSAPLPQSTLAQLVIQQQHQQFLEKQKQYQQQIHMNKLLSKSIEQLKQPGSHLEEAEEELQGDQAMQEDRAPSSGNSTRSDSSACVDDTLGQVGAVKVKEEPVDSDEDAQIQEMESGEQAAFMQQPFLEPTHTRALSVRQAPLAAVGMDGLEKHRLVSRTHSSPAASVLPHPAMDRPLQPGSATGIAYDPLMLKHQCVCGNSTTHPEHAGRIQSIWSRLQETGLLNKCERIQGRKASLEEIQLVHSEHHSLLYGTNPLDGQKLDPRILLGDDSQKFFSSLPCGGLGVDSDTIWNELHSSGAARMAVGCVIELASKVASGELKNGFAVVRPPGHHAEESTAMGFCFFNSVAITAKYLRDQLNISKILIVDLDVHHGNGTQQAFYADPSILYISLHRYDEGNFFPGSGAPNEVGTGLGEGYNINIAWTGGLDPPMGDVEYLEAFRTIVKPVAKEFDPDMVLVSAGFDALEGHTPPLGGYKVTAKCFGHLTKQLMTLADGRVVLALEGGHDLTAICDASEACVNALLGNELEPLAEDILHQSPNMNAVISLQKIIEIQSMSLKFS

Mus musculus [5] = experiment: Binding affinity to mouse brain HDAC1 at 10 mg/kg, ip; assay type: functional
[6] = molecular target: T4, Protein deacetylase HDAC6 (Homo sapiens, UniProt Q9UBN7); experiment: Inhibition of human recombinant HDAC6 expressed in baculovirus coexpressed in fall armyworm Sf9 cells using carboxyfluorescein (FAM)-labeled acetylated/ trifluoroacetylated peptide as substrate after 60 mins by fluorescence assay
T4 sequence (Q9UBN7 whole entry): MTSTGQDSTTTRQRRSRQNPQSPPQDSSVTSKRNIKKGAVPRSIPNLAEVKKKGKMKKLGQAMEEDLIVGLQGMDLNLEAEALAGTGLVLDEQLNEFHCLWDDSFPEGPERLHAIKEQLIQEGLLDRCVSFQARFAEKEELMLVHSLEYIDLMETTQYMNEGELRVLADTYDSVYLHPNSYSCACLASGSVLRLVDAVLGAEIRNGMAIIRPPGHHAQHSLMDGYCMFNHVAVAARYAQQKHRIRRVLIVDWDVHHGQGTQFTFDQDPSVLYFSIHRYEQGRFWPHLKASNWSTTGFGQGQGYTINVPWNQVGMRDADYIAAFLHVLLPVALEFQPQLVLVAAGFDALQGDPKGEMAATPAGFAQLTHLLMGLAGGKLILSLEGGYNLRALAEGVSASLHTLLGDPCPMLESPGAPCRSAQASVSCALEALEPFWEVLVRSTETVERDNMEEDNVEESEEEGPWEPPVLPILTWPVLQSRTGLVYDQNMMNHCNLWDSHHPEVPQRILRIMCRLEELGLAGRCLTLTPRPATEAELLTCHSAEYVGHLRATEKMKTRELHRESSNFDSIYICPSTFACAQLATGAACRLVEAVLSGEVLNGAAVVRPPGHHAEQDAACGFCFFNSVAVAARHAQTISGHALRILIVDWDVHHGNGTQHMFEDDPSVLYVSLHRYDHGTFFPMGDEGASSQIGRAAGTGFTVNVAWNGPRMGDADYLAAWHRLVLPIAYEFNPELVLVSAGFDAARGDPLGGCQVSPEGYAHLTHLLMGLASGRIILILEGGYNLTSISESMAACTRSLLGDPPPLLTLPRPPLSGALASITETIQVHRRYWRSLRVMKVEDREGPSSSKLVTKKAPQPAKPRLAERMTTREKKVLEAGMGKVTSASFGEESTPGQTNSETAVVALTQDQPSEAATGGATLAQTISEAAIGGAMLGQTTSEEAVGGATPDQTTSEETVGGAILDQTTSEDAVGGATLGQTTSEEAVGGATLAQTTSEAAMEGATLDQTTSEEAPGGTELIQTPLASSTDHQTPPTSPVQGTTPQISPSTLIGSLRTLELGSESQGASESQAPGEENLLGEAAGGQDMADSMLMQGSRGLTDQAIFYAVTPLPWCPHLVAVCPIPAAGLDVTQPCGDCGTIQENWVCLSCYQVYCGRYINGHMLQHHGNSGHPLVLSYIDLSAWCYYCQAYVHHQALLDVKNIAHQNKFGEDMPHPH

[7] = Half life in Sprague-Dawley rat brain at 1 mg/kg, po; assay type: ADME, organism-based
[8] = AUC in Sprague-Dawley rat plasma at 1 mg/kg, po; assay type: ADME, organism-based
[9] = Ratio of AUC in brain to plasma in Sprague-Dawley rat at 1 mg/kg, po; assay type: ADME, organism-based; conditions: read-out: Ratio AUC
Histone deacetylase 8 = molecular target: T5, Histone deacetylase 8 (Homo sapiens, UniProt Q9BY41); experiment: Inhibition of C-terminal His-tagged full length human recombinant HDAC8 expressed in baculovirus coexpressed in fall armyworm Sf9 cells using carboxyfluorescein (FAM)-labeled acetylated/ trifluoroacetylated peptide as substrate after 60 mins by fluorescence assay
T5 sequence (Q9BY41 whole entry): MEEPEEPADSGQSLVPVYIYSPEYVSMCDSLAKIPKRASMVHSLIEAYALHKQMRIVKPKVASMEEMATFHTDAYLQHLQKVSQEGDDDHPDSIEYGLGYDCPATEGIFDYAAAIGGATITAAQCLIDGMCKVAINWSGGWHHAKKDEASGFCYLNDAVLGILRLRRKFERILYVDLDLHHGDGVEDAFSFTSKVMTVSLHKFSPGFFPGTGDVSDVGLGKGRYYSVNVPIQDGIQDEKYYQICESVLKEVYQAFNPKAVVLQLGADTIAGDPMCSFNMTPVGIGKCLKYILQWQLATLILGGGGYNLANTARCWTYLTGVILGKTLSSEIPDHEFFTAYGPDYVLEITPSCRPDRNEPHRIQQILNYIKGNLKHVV

Histone deacetylase 7 = molecular target: T6, Histone deacetylase 7 (Homo sapiens, UniProt Q8WUI4); experiment: Inhibition of N-terminal GST-tagged human recombinant HDAC7 (518 to end residues) expressed in baculovirus coexpressed in fall armyworm Sf9 cells using carboxyfluorescein (FAM)-labeled acetylated/ trifluoroacetylated peptide as substrate after 60 mins by fluorescence assay
T6 sequence (Q8WUI4 whole entry): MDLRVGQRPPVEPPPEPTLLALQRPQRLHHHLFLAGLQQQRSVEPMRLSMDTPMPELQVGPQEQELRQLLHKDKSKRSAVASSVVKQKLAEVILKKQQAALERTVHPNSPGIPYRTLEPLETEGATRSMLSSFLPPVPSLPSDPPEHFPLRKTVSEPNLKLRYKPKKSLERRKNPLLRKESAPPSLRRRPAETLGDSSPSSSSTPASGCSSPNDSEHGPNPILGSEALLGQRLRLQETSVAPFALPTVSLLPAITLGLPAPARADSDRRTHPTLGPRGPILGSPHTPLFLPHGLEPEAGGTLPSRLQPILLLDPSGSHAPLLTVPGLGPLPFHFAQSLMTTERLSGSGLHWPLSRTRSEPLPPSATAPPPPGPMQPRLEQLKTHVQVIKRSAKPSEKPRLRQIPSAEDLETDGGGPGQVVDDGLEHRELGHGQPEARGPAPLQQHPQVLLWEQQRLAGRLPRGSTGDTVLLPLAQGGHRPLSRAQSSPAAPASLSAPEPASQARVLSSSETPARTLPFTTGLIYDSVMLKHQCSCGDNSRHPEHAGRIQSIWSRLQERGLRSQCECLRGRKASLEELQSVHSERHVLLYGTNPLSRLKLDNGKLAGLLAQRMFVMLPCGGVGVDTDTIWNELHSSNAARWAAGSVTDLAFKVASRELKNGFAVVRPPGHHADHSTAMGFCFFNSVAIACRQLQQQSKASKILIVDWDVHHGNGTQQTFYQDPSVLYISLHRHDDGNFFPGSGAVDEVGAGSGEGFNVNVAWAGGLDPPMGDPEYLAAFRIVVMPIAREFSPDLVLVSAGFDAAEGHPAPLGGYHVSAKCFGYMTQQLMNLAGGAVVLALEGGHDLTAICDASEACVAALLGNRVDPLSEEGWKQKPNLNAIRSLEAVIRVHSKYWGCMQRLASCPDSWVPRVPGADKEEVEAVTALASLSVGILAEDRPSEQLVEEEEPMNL

Mus musculus [10] = experiment: Binding affinity to mouse brain HDAC2 at 10 mg/kg, ip; assay type: functional
[11] = Half life in Sprague-Dawley rat plasma at 1 mg/kg, po; assay type: ADME, organism-based
[12] = Stability in mouse liver microsomes assessed as compound remaining at 1 uM after 60 mins by UPLC-MS analysis; assay type: ADME; conditions: read-out: Stability
[13] = Cmax in Sprague-Dawley rat plasma at 1 mg/kg, po; assay type: ADME, organism-based; parameters: dose 1 mg/kg, route oral
[14] = AUC in Sprague-Dawley rat brain at 1 mg/kg, po; assay type: ADME, organism-based
[15] = Ratio of Cmax in brain to plasma in Sprague-Dawley rat at 1 mg/kg, po; assay type: ADME, organism-based
[16] = Oral bioavailability in Sprague-Dawley rat at 1 mg/kg; assay type: ADME, organism-based; conditions: in vivo
[17] = Stability in mouse plasma assessed as compound remaining at 5 uM after 5 hrs by UPLC-MS analysis; assay type: ADME, cell-free; conditions: read-out: Stability
Histone deacetylase 5 = Histone deacetylase 5 (Homo sapiens, UniProt Q9UQL6); experiment: Inhibition of N-terminal GST-tagged full length human recombinant HDAC5 expressed in baculovirus coexpressed in fall armyworm Sf9 cells using carboxyfluorescein (FAM)-labeled acetylated/ trifluoroacetylated peptide as substrate after 60 mins by fluorescence assay
Chain of Histone deacetylase 5 (Q9UQL6 whole entry, the tested form may be a part): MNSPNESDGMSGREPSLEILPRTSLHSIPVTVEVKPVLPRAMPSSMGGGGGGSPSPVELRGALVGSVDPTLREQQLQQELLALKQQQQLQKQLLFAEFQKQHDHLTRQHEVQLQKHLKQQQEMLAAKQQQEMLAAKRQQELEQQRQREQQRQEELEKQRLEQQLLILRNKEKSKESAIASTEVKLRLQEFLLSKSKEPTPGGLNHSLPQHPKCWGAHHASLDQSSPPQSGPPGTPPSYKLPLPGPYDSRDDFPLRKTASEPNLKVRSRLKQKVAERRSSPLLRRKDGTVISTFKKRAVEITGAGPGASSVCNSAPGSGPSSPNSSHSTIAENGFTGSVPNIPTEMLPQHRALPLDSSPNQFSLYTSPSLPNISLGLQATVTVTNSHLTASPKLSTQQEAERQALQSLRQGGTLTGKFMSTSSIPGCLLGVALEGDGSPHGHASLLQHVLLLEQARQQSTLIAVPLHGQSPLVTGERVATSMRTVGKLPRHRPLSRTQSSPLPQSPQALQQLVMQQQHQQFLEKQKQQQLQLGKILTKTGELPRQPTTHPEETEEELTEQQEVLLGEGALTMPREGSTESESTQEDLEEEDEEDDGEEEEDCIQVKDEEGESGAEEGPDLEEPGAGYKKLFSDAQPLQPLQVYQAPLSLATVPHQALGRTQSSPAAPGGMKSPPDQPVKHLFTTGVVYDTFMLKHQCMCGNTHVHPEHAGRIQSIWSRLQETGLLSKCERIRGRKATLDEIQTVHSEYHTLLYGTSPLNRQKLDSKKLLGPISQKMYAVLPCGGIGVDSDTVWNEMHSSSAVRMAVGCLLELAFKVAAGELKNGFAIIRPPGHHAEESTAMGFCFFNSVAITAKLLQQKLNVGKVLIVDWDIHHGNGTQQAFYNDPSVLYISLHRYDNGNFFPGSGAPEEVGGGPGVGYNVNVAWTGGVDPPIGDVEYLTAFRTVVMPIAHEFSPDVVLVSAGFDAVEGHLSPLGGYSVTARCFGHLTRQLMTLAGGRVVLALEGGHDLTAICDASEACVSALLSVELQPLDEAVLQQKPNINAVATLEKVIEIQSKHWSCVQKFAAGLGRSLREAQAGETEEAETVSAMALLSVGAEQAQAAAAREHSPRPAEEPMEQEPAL

Histone deacetylase 4 = Histone deacetylase 4 (Homo sapiens, UniProt P56524); experiment: Inhibition of N-terminal GST-tagged and C-terminal His-tagged human recombinant HDAC4 (627 to 1084 residues ) expressed in baculovirus coexpressed in fall armyworm Sf9 cells using carboxyfluorescein (FAM)-labeled acetylated/ trifluoroacetylated peptide as substrate after 60 mins by fluorescence assay
Chain of Histone deacetylase 4 (P56524 whole entry, the tested form may be a part): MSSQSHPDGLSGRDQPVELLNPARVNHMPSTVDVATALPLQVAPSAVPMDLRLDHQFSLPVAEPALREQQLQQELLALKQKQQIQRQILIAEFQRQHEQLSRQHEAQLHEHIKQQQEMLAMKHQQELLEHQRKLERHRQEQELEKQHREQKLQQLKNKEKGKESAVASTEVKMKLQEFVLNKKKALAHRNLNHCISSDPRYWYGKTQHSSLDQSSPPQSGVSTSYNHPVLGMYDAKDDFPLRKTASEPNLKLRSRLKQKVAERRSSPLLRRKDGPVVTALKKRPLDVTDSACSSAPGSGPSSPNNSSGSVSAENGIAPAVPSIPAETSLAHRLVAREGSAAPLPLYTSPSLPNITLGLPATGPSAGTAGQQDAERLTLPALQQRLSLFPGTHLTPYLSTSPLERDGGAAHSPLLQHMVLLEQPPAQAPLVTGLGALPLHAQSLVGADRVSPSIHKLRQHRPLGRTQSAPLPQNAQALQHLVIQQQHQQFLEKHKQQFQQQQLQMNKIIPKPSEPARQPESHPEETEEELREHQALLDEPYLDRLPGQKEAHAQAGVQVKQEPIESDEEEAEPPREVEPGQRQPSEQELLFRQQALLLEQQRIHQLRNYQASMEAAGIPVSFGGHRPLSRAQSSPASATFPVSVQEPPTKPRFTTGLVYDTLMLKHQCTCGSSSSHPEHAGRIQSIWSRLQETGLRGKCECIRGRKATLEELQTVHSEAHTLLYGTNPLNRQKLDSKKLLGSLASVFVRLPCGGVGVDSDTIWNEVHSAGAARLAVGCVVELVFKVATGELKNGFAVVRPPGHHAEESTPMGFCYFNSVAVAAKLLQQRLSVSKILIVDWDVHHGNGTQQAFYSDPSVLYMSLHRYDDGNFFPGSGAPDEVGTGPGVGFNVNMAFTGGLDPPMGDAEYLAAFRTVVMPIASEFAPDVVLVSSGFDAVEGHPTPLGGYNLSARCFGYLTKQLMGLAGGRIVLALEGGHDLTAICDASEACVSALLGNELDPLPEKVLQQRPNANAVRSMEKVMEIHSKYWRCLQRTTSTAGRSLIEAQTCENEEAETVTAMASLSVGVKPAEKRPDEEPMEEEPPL

Histone deacetylase 1 [18] = molecular target: T1, Histone deacetylase 1; experiment: biochemical
Description: Inhibition of C-terminal His-tagged and C-terminal FLAG-tagged full length human recombinant HDAC1 expressed in baculovirus coexpressed in fall armyworm Sf9 cells using carboxyfluorescein (FAM)-labeled acetylated/ trifluoroacetylated peptide as substrate after 60 mins by fluorescence assay

Histone deacetylase 2 [19] = molecular target: T3, Histone deacetylase 2; experiment: biochemical; parameters: species or system Sf9
Description: Inhibition full length human recombinant HDAC2 expressed in baculovirus coexpressed in fall armyworm Sf9 cells using carboxyfluorescein (FAM)-labeled acetylated/ trifluoroacetylated peptide as substrate after 60 mins by fluorescence assay

Histone deacetylase 3 [20] = molecular target: T2, Histone deacetylase 3; remark: listed apart in the source
Description: Inhibition full length human recombinant HDAC3 expressed in baculovirus using carboxyfluorescein (FAM)-labeled acetylated/ trifluoroacetylated peptide as substrate after 60 mins by fluorescence assay

T2 sequence (O15379 whole entry): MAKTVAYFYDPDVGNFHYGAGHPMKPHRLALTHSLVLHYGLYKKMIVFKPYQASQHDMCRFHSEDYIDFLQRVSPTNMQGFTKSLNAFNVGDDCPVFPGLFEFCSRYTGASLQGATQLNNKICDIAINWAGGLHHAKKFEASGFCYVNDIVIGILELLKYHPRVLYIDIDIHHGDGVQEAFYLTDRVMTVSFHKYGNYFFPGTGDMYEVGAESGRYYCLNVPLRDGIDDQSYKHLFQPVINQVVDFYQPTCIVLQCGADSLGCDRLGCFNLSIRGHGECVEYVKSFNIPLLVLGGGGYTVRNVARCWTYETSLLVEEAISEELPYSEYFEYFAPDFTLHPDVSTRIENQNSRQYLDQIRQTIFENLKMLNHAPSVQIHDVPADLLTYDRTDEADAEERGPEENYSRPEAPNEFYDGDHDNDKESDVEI
T1 sequence (Q13547 whole entry): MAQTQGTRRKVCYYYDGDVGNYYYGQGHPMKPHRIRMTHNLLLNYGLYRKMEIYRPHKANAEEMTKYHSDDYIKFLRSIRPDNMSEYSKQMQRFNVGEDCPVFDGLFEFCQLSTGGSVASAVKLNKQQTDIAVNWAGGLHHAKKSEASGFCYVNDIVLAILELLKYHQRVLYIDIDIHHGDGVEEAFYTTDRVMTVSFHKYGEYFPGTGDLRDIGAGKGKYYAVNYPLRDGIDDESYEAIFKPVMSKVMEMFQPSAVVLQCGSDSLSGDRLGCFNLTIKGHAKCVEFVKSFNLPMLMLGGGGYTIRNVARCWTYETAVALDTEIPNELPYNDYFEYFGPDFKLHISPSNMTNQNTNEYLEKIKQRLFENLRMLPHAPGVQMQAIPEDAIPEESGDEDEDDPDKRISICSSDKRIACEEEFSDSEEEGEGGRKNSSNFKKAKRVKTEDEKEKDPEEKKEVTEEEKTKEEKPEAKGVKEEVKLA

| T1/2 (Histone deacetylase 1 [1]) [min] | T1/2 (Histone deacetylase 3 [2]) [min] | remaining at 5 h, 5 µM [17] [%] | IC50 (Histone deacetylase 1 [18]) [µM] | IC50 (Histone deacetylase 2 [19]) [µM] | IC50 (Histone deacetylase 3 [20]) [µM] | SMILES | also measured |
| --- | --- | --- | --- | --- | --- | --- | --- |
|  |  | 93 |  |  |  | Nc1ccc(-c2ccc(F)cc2)cc1NC(=O)C1CCOCC1 | Activity (Mus musculus [5]): 68%; Activity (Mus musculus [10]): 10%; remaining at 1 h, 1 µM [12]: 54% |
| 26.7 | > 33.3 |  |  |  |  | Nc1ccc(-c2ccc(C(F)(F)F)cc2)cc1NC(=O)C1CCOCC1 | T1/2 (Histone deacetylase 2 [3]): > 33.3 min |
| 9.67 | > 33.3 |  |  |  |  | Nc1ccc(-c2cccc(F)c2)cc1NC(=O)C1CCOCC1 | T1/2 (Histone deacetylase 2 [3]): 12.3 min |
| 2.35 | > 33.3 |  |  |  |  | Nc1ccc(-c2ccncc2)cc1NC(=O)C1CCOCC1 |  |

The remaining lines, values behind:

| SMILES | T1/2 (Histone deacetylase 1 [1]) [min] | T1/2 (Histone deacetylase 3 [2]) [min] | remaining at 5 h, 5 µM [17] [%] | IC50 (Histone deacetylase 1 [18]) [µM] | IC50 (Histone deacetylase 2 [19]) [µM] | IC50 (Histone deacetylase 3 [20]) [µM] | also measured |
| --- | --- | --- | --- | --- | --- | --- | --- |
| Nc1ccc(-c2ccccc2)cc1NC(=O)C1CCOCC1 | 0.119 | 3.85 |  |  |  |  |  |
| Nc1ccc(-c2ccc(F)cc2)cc1NC(=O)[C@@H]1C[C@H]2CC[C@@H](C1)O2 | 3 | 132 | 114 |  |  |  | T1/2 (Histone deacetylase 2 [3]): 37 min; Cmax [4]: 890 nM; IC50 (Histone deacetylase 9): > 33.3 µM; Activity (Mus musculus [5]): 42%; IC50 [6]: > 33.3 µM; half-life [7]: 146 min; AUC [8]: 10.8 µM·h; Kp [9]: 0.17; IC50 (Histone deacetylase 8): > 33.3 µM; IC50 (Histone deacetylase 7): > 33.3 µM; Activity (Mus musculus [10]): 10%; half-life [11]: 282 min; remaining at 1 h, 1 µM [12]: 62%; Cmax [13]: 3970 nM; AUC [14]: 1.8 µM·h; Kp [15]: 0.22; bioavailability [16]: 33.4%; IC50 (Histone deacetylase 5): > 33.3 µM; IC50 (Histone deacetylase 4): > 33.3 µM |
| Nc1ccc(-c2ccc(F)cc2)cc1NC(=O)C1CCc2ccccc2O1 (centres undefined) |  |  | 3.7 | 5.59 | 6.56 | 6.26 |  |
| Nc1ccc(-c2ccc(F)cc2)cc1NC(=O)[C@@H]1CCCCO1 |  |  | 0 | 1.43 | 1.45 | 5.95 |  |
| Nc1ccc(-c2ccc(F)cc2)cc1NC(=O)C1C2COCC21 (centres undefined) | 13 | 217 | 94.1 |  |  |  | T1/2 (Histone deacetylase 2 [3]): 58 min; remaining at 1 h, 1 µM [12]: 60% |
| Nc1ccc(-c2ccc(F)cc2)cc1NC(=O)C1Cc2ccccc2CO1 (centres undefined) |  |  | 11.1 | 0.045 | 0.119 | 25.9 |  |
| Nc1ccc(-c2ccc(F)cc2)cc1NC(=O)C1CCCOC1 (centres undefined) |  |  |  | 1.22 | 4.73 | 19.8 |  |
| Nc1ccc(-c2cccnc2)cc1NC(=O)C1CCOCC1 | 6.45 | 20.8 |  |  |  |  |  |
| Nc1ccc(-c2ccc(F)cc2)cc1NC(=O)[C@H]1CCCCO1 |  |  | 0 | 0.467 | 1.29 | 5.73 |  |
| Nc1ccc(-c2ccc(F)cc2)cc1NC(=O)C1COc2ccccc2C1 (centres undefined) |  |  | 100 |  |  |  | remaining at 1 h, 1 µM [12]: 25% |
